Data taken from patent EP4647428A1, “COMPOUND CONTAINING 2-METHYL-2-(3-(PIPERIDIN-3-YL)PHENOXY)-2-METHYLPROPANAMIDE SKELETON” (Jiangsu Mingsheng Jutai Biotechnology Co. Ltd, priority 2023, dated 2024).

Each molecule was assayed on SW480 (assay: CCK8 cell inhibition test on SW480 cells). Conditions: CCK-8, SW480 cells, 24 hours incubation at 37°C, compound 20 µM to 0.15625 µM in DMEM (2% FBS).
Assay type: cell-based
Protocol: Cells were digested, counted, and plated in a 96-well plate (flat-bottomed, transparent) with 10,000 cells/100 µl DMEM (10% FBS) per well . • 2. Observe the cell status on the next day and start adding drugs after the cells have fully adhered to the wall; • 3. Dilute the compound in DMEM (2% FBS) in a serial dilution format to concentrations of 20 µM, 10 µM, 5 µM, 2.5 µM, 1.25 µM, 0.625 µM, 0.3125 µM, 0.15625 µM, and 0 µM (with equal volume of DMSO). • 4. Add 100 µl of the above compounds at different concentrations to each well. Repeat for each concentration gradient in duplicate. Leave three blank wells (add only DMEM 2% FBS culture medium without cells) . • 5. Incubate at 37°C for 24 hours . • 6. Add 10 µl of CCK-8 Enhanced Solution to each well. Since the amount of CCK-8 added to each well is relatively small, there may be errors due to the reagent sticking to the well wall. It is recommended to gently tap the culture plate after adding the reagent to help mix it. • 7. Incubate in the incubator for 0.5-4 hours: The amount of formazan formed varies depending on the cell type. In most cases, incubation for 1 hour is sufficient. If color development is insufficient, continue incubation to confirm optimal conditions. • 8. Measure the absorbance at 450nm and 600nm (excluding interference from the reagent background color and the absorbance of the well plate itself); • 9. The final absorbance value is OD450nm-OD600nm, and the inhibition rate is calculated; Inhibition rate = [(Ac−As)/(Ac−Ab)] × 100% [formula] • As: absorbance of the experimental well (culture medium containing cells, CCK-8, and drug to be tested); • Ac: absorbance of control wells (culture medium containing cells, CCK-8, and no test drug); • Ab: absorbance of blank wells (culture medium without cells, test drugs, or CCK-8).

Molecule | SW480 IC50(µM) | IC50 [µM]
CC(C)(Oc1cccc(C2CCCN(C(=O)NCc3ccc(-c4cn[nH]c4)cc3)C2)c1)C(=O)NCC(=O)N1CCCC1CN (centres unmarked) [Compound 115-020, N-(4-(1H-pyrazol-4-yl)benzyl)-3-(3-((1-((2-(2-(aminomethyl)pyrrolidin-1-yl)-2-oxoethyl)amino)-2-methyl-1-oxopropanoyl)oxy)phenyl)piperidine-1-carboxamide] | Inactive | –
CC(C)(Oc1cccc(C2CCCN(C(=O)NCCc3ccc(-c4cn[nH]c4)cc3)C2)c1)C(=O)NCC(=O)N1CCCC1CN (centres unmarked) [Compound 115-021, N-(4-(1H-pyrazol-4-yl)phenethyl)-3-(3-((1-((2-(2-(aminomethyl)pyrrolidin-1-yl)-2-oxoethyl)amino)-2-methyl-1-oxopropanoyl)oxy)phenyl)piperidine-1-carboxamide] | Inactive | –
N-(2-((S)-2-(2-aminoethyl)pyrrolidin-1-yl)-2-oxoethyl)-2-(3-(1-((4'-isopropyl-[1,1'-biphenyl]-3-yl)sulf onylpiperidin-3-yl)phenoxy)-2-methylpropanamide) [Compound 115-014] | – | 52.9

Further lines, with some results ahead:

SW480 IC50(µM) | Molecule | IC50 [µM]
Inactive | CC(C)(Oc1cccc(C2CCCN(S(=O)(=O)c3cccc(-c4cn[nH]c4)c3)C2)c1)C(=O)NS(=O)(=O)c1ccc(C(F)(F)F)cc1 (centres unmarked) [Compound 115-025, 2-(3-(1-((3-(1H-pyrazol-4-yl)phenyl)sulfonyl)piperidin-3-yl)phenoxy)-2-methyl-N-((4-(trifluoromethyl)phenyl)sulfonyl)propionamide] | –
Inactive | CC(C)(Oc1cccc(C2CCCN(S(=O)(=O)c3ccc(-c4cn[nH]c4)cc3)C2)c1)C(=O)NS(=O)(=O)c1ccc(C(F)(F)F)cc1 (centres unmarked) [Compound 115-026, 2-(3-(1-((4-(1H-pyrazol-4-yl)phenyl)sulfonyl)piperidin-3-yl)phenoxy)-2-methyl-N-((4-(trifluoromethyl)phenyl)sulfonyl)propionamide] | –

Same assay, conditions: Homo sapiens; CCK-8, SW480 cells, 24 hours incubation at 37°C, compound 20 µM to 0.15625 µM in DMEM (2% FBS)

Molecule | IC50 [µM]
CC(C)n1cc(-c2cccc(S(=O)(=O)N3CCCC(c4cccc(OC(C)(C)C(=O)NCC(=O)N5CCCC5CN)c4)C3)c2)cn1 (centres unmarked) [Compound 115-022, N-(2-(2-(Aminomethyl)pyrrolidin-1-yl)-2-oxoethyl)-2-(3-(1-((3-(1-isopropyl-1H-pyrazol-4-yl)phenyl)sulfonyl)piperidin-3-yl)phenoxy)-2-methylpropanamide] | 9.71
CC(C)c1ccc(-c2cccc(S(=O)(=O)N3CCCC(c4cccc(OC(C)(C)C(=O)NCC(=O)N5CC[C@H](CN)C5)c4)C3)c2)cc1 (some centres unmarked) [Compound 115-013] | 3.12
CC(C)n1cc(-c2cccc(S(=O)(=O)N3CCCC(c4cccc(OC(C)(C)C(=O)NS(=O)(=O)c5ccc(C(F)(F)F)cc5)c4)C3)c2)cn1 (centres unmarked) [Compound 115-024, 2-(3-(1-((3-(1-isopropyl-1H-pyrazol-4-yl)phenyl)sulfonyl)piperidin-3-yl)phenoxy)-2-methyl-N-((4-(trifluoromethyl)phenyl)sulfonyl)propionamide] | 11.1
CC(C)c1ccc(-c2cccc(S(=O)(=O)N3CCCC(c4cccc(OC(C)(C)C(=O)NCC(=O)N5CCC[C@@H]5CN)c4)C3)c2)cc1 (some centres unmarked) [Compound 115-011] | 3.12 to 6.25
CC(C)c1ccc(-c2cccc(S(=O)(=O)N3CCCC(c4cccc(OC(C)(C)C(=O)NS(=O)(=O)N5CCC[C@@H]5CN)c4)C3)c2)cc1 (stereo partly drawn) [Compound 115-017, N-(2-(R)-(Aminomethyl)pyrrolidin-1-yl)sulfonyl)-2-(3-(1-((4'-isopropyl-[1,1'-biphenyl]-3-yl)sulfonylpiperidin-3-yl)phenoxy)-2-methylpropionamide] | 10.6
CC(C)(Oc1cccc(C2CCCN(S(=O)(=O)c3cccc(-c4cn[nH]c4)c3)C2)c1)C(=O)NCC(=O)N1CCCC1CN (centres unmarked) [Compound 115-023, 2-(3-(1-((3-(1H-pyrazol-4-yl)phenyl)sulfonyl)piperidin-3-yl)phenoxy)-N-(2-(2-(aminomethyl)pyrrolidin-1-yl)-2-oxoethyl)-2-methylpropanamide] | 30.5
CC(C)c1ccc(-c2cccc(S(=O)(=O)N3CCCC(c4cccc(OC(C)(C)C(=O)NS(=O)(=O)c5ccc(C(F)(F)F)cc5)c4)C3)c2)cc1 (centres unmarked) [Compound 115, reference compound] | 2.81

Second part, the molecule after the results:

IC50 [µM] | Molecule
20.8 | CC(C)(Oc1cccc(C2CCCN(C(=O)CCc3ccc(-c4cn[nH]c4)cc3)C2)c1)C(=O)NCC(=O)N1CCCC1CN (centres unmarked) [Compound 115-029, 2-(3-(1-(3-(4-(1H-pyrazol-4-yl)phenyl)propionyl)piperidin-3-yl)phenoxy)-N-(2-(2-(aminomethyl)pyrrolidin-1-yl)-2-oxoethyl)-2-methylpropionamide]
6.99 | CC(C)c1ccc(-c2ccc(CC(=O)N3CCCC(c4cccc(OC(C)(C)C(=O)NCC(=O)N5CCCC5CN)c4)C3)cc2)cc1 (centres unmarked) [Compound 115-031, N-(2-(2-(Aminomethyl)pyrrolidin-1-yl)-2-oxoethyl)-2-(3-(1-(2-(4'-isopropyl-[1,1'-biphenyl]-4-yl)acetyl)piperidin-3-yl)phenoxy)-2-methylpropanamide]
4.06 | CC(C)c1ccc(-c2cncc(S(=O)(=O)N3CCCC(c4cccc(OC(C)(C)C(=O)NCC(=O)N5CCCC5CN)c4)C3)c2)cc1 (centres unmarked) [Compound 115-055, N-(2-(2-(Aminomethyl)pyrrolidin-1-yl)-2-oxoethyl)-2-(3-(1-((5-(4-isopropylphenyl)pyridin-3-yl)sulfonyl)piperidin-3-yl)phenoxy)-2-methylpropanamide]
≤ 2.74 | CC(C)c1ccc(-c2cccc(S(=O)(=O)N3CCCC(c4cccc(OC(C)(C)C(=O)NCC(=O)N5CCCC5CN)c4)C3)n2)cc1 (centres unmarked) [Compound 115-052, N-(2-(2-(aminomethyl)pyrrolidin-1-yl)-2-oxoethyl)-2-(3-(1-((6-(4-isopropylphenyl)pyridin-2-yl)sulfonyl)piperidin-3-yl)phenoxy)-2-methylpropanamide]
3.12 to 6.25 | CC(C)c1ccc(-c2ccc(C(=O)N3CCCC(c4cccc(OC(C)(C)C(=O)NCC(=O)N5CCCC5CN)c4)C3)cc2)cc1 (centres unmarked) [Compound 115-030]
≤ 2.65 | CC(C)c1ccc(-c2cccc(S(=O)(=O)N3CCC=C(c4cccc(OC(C)(C)C(=O)NCC(=O)N5CCCC5CN)c4)C3)c2)cc1 (centres unmarked) [Compound 115-049, N-(2-(2-(Aminomethyl)pyrrolidin-1-yl)-2-oxoethyl)-2-(3-(1-((4'-isopropyl-[1,1'-biphenyl]-3-yl)sulfonyl)-1,2,5,6-tetrahydropyridin-3-yl)phenoxy)-2-methylpropanamide]
15.7 | CC(C)(Oc1cccc(C2CCCN(C(=O)Cc3ccc(-c4cn[nH]c4)cc3)C2)c1)C(=O)NCC(=O)N1CCCC1CN (centres unmarked) [Compound 115-028, 2-(3-(1-(2-(4-(1H-pyrazol-4-yl)phenyl)acetyl)piperidin-3-yl)phenoxy)-N-(2-(2-(aminomethyl)pyrrolidin-1-yl)-2-oxoethyl)-2-methylpropanamide]
23.1 | CC(C)(Oc1cccc(C2CCCN(C(=O)c3ccc(-c4cn[nH]c4)cc3)C2)c1)C(=O)NCC(=O)N1CCCC1CN (centres unmarked) [Compound 115-027, 2-(3-(1-(4-(1H-pyrazol-4-yl)benzoyl)piperidin-3-yl)phenoxy)-N-(2-(2-(aminomethyl)pyrrolidin-1-yl)-2-oxoethyl)-2-methylpropanamide]
